In ChEMBL document CHEMBL1201862, “PubChem BioAssay data set” (2004):
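Five compound concentrations were applied to cells in 96-well plates for 48 hours; endpoints were derived by simple linear interpolation of the resulting dose-response curve. Here, GI50 denotes the concentration required for 50% inhibition of growth.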 Activity calls are given as the source filed them. Rule as the data show it: active = GI50 up to about 1.1 µM and inactive = higher.

How the values were obtained:
Experiment in all cases: NCI tumour cell line growth inhibition, 48 h
786-0 = system: 786-0
ACHN = system: ACHN
CCRF-CEM = system: CCRF-CEM
COLO 205 = system: COLO 205
EKVX = system: EKVX
HOP-62 = system: HOP-62
HT-29 = system: HT-29
IGROV-1 = system: IGROV-1
Malme-3M = system: Malme-3M
NCI-H460 = system: NCI-H460
NCI/ADR-RES = system: NCI/ADR-RES
OVCAR-5 = system: OVCAR-5
PC-3 = system: PC-3
SK-MEL-5 = system: SK-MEL-5
SK-OV-3 = system: SK-OV-3
SN12C = system: SN12C
SR = system: SR
UACC-257 = system: UACC-257
UO-31 = system: UO-31

Compound	GI50 (786-0)	GI50 (ACHN)	GI50 (CCRF-CEM)	GI50 (COLO 205)	GI50 (EKVX)	GI50 (HOP-62)	GI50 (HT-29)	GI50 (IGROV-1)	GI50 (Malme-3M)	GI50 (NCI-H460)	GI50 (NCI/ADR-RES)	GI50 (OVCAR-5)	GI50 (PC-3)	GI50 (SK-MEL-5)	GI50 (SK-OV-3)	GI50 (SN12C)	GI50 (SR)	GI50 (UACC-257)	GI50 (UO-31)
Cc1ncc(C/N=C/c2ccc(Cl)cc2)c(N)n1	> 100 µM (inactive)	> 100 µM (inactive)	> 100 µM (inactive)	> 100 µM (inactive)	> 100 µM (inactive)	> 100 µM (inactive)	> 100 µM (inactive)	> 100 µM (inactive)	> 100 µM (inactive)	> 100 µM (inactive)	> 100 µM (inactive)	> 100 µM (inactive)	> 100 µM (inactive)	> 100 µM (inactive)	> 100 µM (inactive)	> 100 µM (inactive)	> 100 µM (inactive)	> 100 µM (inactive)	> 100 µM (inactive)
CCOc1c(Br)cc(Br)cc1C=C(C#N)C#N	7.01 µM (inactive)	2.77 µM (inactive)	1.18 µM (inactive)	> 10 µM (inactive)	> 10 µM (inactive)	> 10 µM (inactive)	> 10 µM (inactive)	4.29 µM (inactive)	> 10 µM (inactive)	> 10 µM (inactive)	1.27 µM (inactive)	–	> 10 µM (inactive)	3.61 µM (inactive)	> 10 µM (inactive)	6.27 µM (inactive)	0.916 µM (active)	–	–
CCCCOCCOC1=CC(=O)c2c(O)ccc(O)c2C1=O	1.67 µM (inactive)	1.72 µM (inactive)	1.22 µM (inactive)	1.14 µM (inactive)	1.69 µM (inactive)	0.458 µM (active)	1.67 µM (inactive)	1.91 µM (inactive)	0.24 µM (active)	1.82 µM (inactive)	2.12 µM (inactive)	–	2.59 µM (inactive)	0.216 µM (active)	> 10 µM (inactive)	1.66 µM (inactive)	1.24 µM (inactive)	1.03 µM (active)	1.64 µM (inactive)
Cc1cc2nc3c(C#N)c4c(c(-c5ccc(Cl)cc5)n3c2cc1C)CCC4	19.4 µM (inactive)	24.2 µM (inactive)	24.2 µM (inactive)	19.8 µM (inactive)	24.2 µM (inactive)	22.4 µM (inactive)	21.3 µM (inactive)	18.4 µM (inactive)	23.3 µM (inactive)	43.2 µM (inactive)	41.1 µM (inactive)	–	29.2 µM (inactive)	19.6 µM (inactive)	18.2 µM (inactive)	30.3 µM (inactive)	23.8 µM (inactive)	21.4 µM (inactive)	19.9 µM (inactive)
CN(C)c1ccc(/C=N/c2ccc(-c3nc4ccccc4s3)cc2)cc1	20.2 µM (inactive)	17.4 µM (inactive)	0.578 µM (active)	23.1 µM (inactive)	24.6 µM (inactive)	24.5 µM (inactive)	32.5 µM (inactive)	36.2 µM (inactive)	31.6 µM (inactive)	27.4 µM (inactive)	28.9 µM (inactive)	40.2 µM (inactive)	22.4 µM (inactive)	19.3 µM (inactive)	36.8 µM (inactive)	36.1 µM (inactive)	36.3 µM (inactive)	28 µM (inactive)	43.8 µM (inactive)
Oc1c([Si](c2ccccc2)(c2ccccc2)c2ccccc2)cc2ccccc2c1-c1c(O)c([Si](c2ccccc2)(c2ccccc2)c2ccccc2)cc2ccccc12	> 100 µM (inactive)	> 100 µM (inactive)	> 100 µM (inactive)	> 100 µM (inactive)	> 100 µM (inactive)	98.9 µM (inactive)	> 100 µM (inactive)	> 100 µM (inactive)	> 100 µM (inactive)	> 100 µM (inactive)	> 100 µM (inactive)	> 100 µM (inactive)	> 100 µM (inactive)	> 100 µM (inactive)	> 100 µM (inactive)	–	> 100 µM (inactive)	> 100 µM (inactive)	> 100 µM (inactive)
CN(CCCNC(=O)c1cn(C)c2c1Cc1ccccc1-2)CCCNC(=O)c1cn(C)c2c1Cc1ccccc1-2	4.83 µM (inactive)	10.5 µM (inactive)	2.74 µM (inactive)	1.9 µM (inactive)	9.4 µM (inactive)	12.9 µM (inactive)	2.32 µM (inactive)	6.24 µM (inactive)	11.7 µM (inactive)	8.89 µM (inactive)	12.5 µM (inactive)	15.6 µM (inactive)	10.8 µM (inactive)	14.2 µM (inactive)	16.5 µM (inactive)	13.4 µM (inactive)	1.45 µM (inactive)	6.12 µM (inactive)	9.16 µM (inactive)
CCOP(=O)(OCC)/C(C#N)=C/c1cnc(C)[nH]1	> 100 µM (inactive)	> 100 µM (inactive)	> 100 µM (inactive)	> 100 µM (inactive)	> 100 µM (inactive)	> 100 µM (inactive)	> 100 µM (inactive)	> 100 µM (inactive)	> 100 µM (inactive)	> 100 µM (inactive)	> 100 µM (inactive)	> 100 µM (inactive)	> 100 µM (inactive)	> 100 µM (inactive)	20.5 µM (inactive)	> 100 µM (inactive)	> 100 µM (inactive)	> 100 µM (inactive)	> 100 µM (inactive)
O=C(O)CCCCn1cnc2c(S)ncnc21	> 100 µM (inactive)	> 100 µM (inactive)	4.33 µM (inactive)	> 100 µM (inactive)	> 100 µM (inactive)	> 100 µM (inactive)	> 100 µM (inactive)	> 100 µM (inactive)	> 100 µM (inactive)	> 100 µM (inactive)	> 100 µM (inactive)	> 100 µM (inactive)	> 100 µM (inactive)	> 100 µM (inactive)	> 100 µM (inactive)	> 100 µM (inactive)	> 100 µM (inactive)	> 100 µM (inactive)	> 100 µM (inactive)
CSc1nc(=O)cnn1C	> 100 µM (inactive)	> 100 µM (inactive)	> 100 µM (inactive)	> 100 µM (inactive)	> 100 µM (inactive)	> 100 µM (inactive)	> 100 µM (inactive)	> 100 µM (inactive)	> 100 µM (inactive)	> 100 µM (inactive)	> 100 µM (inactive)	> 100 µM (inactive)	> 100 µM (inactive)	> 100 µM (inactive)	> 100 µM (inactive)	> 100 µM (inactive)	> 100 µM (inactive)	> 100 µM (inactive)	> 100 µM (inactive)
COc1ccc(/C=c2\c(=O)[nH]c3nc4ccccc4c(=O)n23)cc1	99.5 µM (inactive)	> 100 µM (inactive)	39.9 µM (inactive)	60.8 µM (inactive)	54.1 µM (inactive)	> 100 µM (inactive)	69.8 µM (inactive)	68.4 µM (inactive)	58.5 µM (inactive)	–	> 100 µM (inactive)	> 100 µM (inactive)	> 100 µM (inactive)	73.6 µM (inactive)	> 100 µM (inactive)	55.1 µM (inactive)	48.2 µM (inactive)	88.9 µM (inactive)	44.7 µM (inactive)
O=c1[nH]c(=S)c2cc3c(=S)[nH]c(=O)n(CCO)c3nc2n1CCO	> 100 µM (inactive)	> 100 µM (inactive)	> 100 µM (inactive)	> 100 µM (inactive)	> 100 µM (inactive)	> 100 µM (inactive)	–	> 100 µM (inactive)	> 100 µM (inactive)	> 100 µM (inactive)	> 100 µM (inactive)	> 100 µM (inactive)	> 100 µM (inactive)	> 100 µM (inactive)	> 100 µM (inactive)	> 100 µM (inactive)	> 100 µM (inactive)	> 100 µM (inactive)	> 100 µM (inactive)
CCOC(=O)c1c(N2CCCC2)[nH]c(=O)c(C(c2ccco2)c2c(O)c(C(=O)OCC)c(N3CCCC3)[nH]c2=O)c1O	29.2 µM (inactive)	95.5 µM (inactive)	> 100 µM (inactive)	> 100 µM (inactive)	> 100 µM (inactive)	50.6 µM (inactive)	> 100 µM (inactive)	–	> 100 µM (inactive)	> 100 µM (inactive)	> 100 µM (inactive)	67.9 µM (inactive)	> 100 µM (inactive)	82.6 µM (inactive)	> 100 µM (inactive)	> 100 µM (inactive)	> 100 µM (inactive)	> 100 µM (inactive)	> 100 µM (inactive)
CCCC(CCC(N)=O)(CCC(N)=O)[N+](=O)[O-]	> 100 µM (inactive)	> 100 µM (inactive)	> 100 µM (inactive)	> 100 µM (inactive)	> 100 µM (inactive)	–	> 100 µM (inactive)	> 100 µM (inactive)	> 100 µM (inactive)	> 100 µM (inactive)	> 100 µM (inactive)	> 100 µM (inactive)	> 100 µM (inactive)	> 100 µM (inactive)	> 100 µM (inactive)	> 100 µM (inactive)	> 100 µM (inactive)	> 100 µM (inactive)	> 100 µM (inactive)
O=C(c1ccc(-c2ccccc2)cc1)N(Cc1cccnc1)C(=S)N(Cc1cccnc1)C(=O)c1ccc(-c2ccccc2)cc1	> 100 µM (inactive)	> 100 µM (inactive)	> 100 µM (inactive)	> 100 µM (inactive)	> 100 µM (inactive)	> 100 µM (inactive)	48.5 µM (inactive)	–	> 100 µM (inactive)	> 100 µM (inactive)	> 100 µM (inactive)	> 100 µM (inactive)	> 100 µM (inactive)	56 µM (inactive)	> 100 µM (inactive)	> 100 µM (inactive)	0.241 µM (active)	> 100 µM (inactive)	51.9 µM (inactive)
